In ChEMBL document CHEMBL6134780, “Halogenated retinoid derivatives as dual RARα and RXRα modulators for treating acute promyelocytic leukemia cells” (Eur J Med Chem, 2024):
Values belong to the compound of their own block, whether it stands above or below them. The source made the active and inactive calls. The calls are words filed in the database; no cut-off is given here.

Experiments:
NB-4 [1] = assay: Induction of cell differentiation in human NB4 cells assessed as NBT positive cells at 0.5 uM incubated for 6 days by Nitro Blue tetrazolium chloride based microscopic analysis (reference value: 0 %); format: functional; conditions: time 6 day
[2] = target: T1, Retinoic acid receptor alpha (Homo sapiens) (UniProt P10276); assay: Agonist activity at full length RARalpha LBD (unknown origin) transfected in HEK293T cells co-transfected with pG5luc reporter and Renilla-luc assessed as transactivation at 0.5 to 1 uM incubated for 12 hrs by luciferase reporter gene assay; format: cell-based; conditions: filed as agonist, dose 0.5-1 µM
T1 sequence (whole entry): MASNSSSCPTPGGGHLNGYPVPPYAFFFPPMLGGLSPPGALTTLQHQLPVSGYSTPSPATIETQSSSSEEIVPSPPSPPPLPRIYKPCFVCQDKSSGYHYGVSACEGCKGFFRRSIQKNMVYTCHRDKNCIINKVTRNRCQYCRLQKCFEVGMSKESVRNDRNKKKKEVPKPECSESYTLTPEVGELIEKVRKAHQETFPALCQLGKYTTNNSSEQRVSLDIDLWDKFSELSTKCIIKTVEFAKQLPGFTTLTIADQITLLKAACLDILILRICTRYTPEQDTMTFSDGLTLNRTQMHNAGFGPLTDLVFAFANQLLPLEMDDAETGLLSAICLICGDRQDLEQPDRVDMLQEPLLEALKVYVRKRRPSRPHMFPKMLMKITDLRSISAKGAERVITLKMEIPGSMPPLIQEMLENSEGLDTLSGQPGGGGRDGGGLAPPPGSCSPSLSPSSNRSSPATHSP

NB-4 [3] = assay: Induction of apoptosis in human NB4 cells assessed as early apoptotic cells at 1 uM incubated for 24 hrs by Annexin V-FITC/PI staining based flow cytometric analysis (reference value: 1.77 %); format: functional
NB-4 [4] = assay: Induction of apoptosis in human NB4 cells assessed as late apoptotic cells at 1 uM incubated for 24 hrs by Annexin V-FITC/PI staining based flow cytometric analysis (reference value: 2.23 %); format: functional
[5] = Induction of apoptosis in human ATRA-resistant NB4-LR2 cells assessed as early apoptotic cells at 1 uM incubated for 24 hrs by Annexin V-FITC/PI staining based flow cytometric analysis (reference value: 1.41 %); format: functional
[6] = Induction of apoptosis in human ATRA-resistant NB4-LR2 cells assessed as late apoptotic cells at 1 uM incubated for 24 hrs by Annexin V-FITC/PI staining based flow cytometric analysis (reference value: 5.62 %); format: functional
NB-4 [7] = assay: Cell cycle arrest in human NB4 cells assessed as accumulation of cells at G0/G1 phase at 1 uM incubated for 12 hrs by DAPI staining based flow cytometric analysis (reference value: 51 %); format: functional
NB-4 [8] = assay: Cell cycle arrest in human NB4 cells assessed as accumulation of cells at S phase at 1 uM incubated for 12 hrs by DAPI staining based flow cytometric analysis (reference value: 20 %); format: functional
NB-4 [9] = assay: Cell cycle arrest in human NB4 cells assessed as accumulation of cells at G2/M phase at 1 uM incubated for 12 hrs by DAPI staining based flow cytometric analysis (reference value: 26 %); format: functional
NB-4 [10] = assay: Cell cycle arrest in human NB4 cells assessed as accumulation of cells at sub-G1 phase at 1 uM incubated for 12 hrs by DAPI staining based flow cytometric analysis (reference value: 2 %); format: functional
[11] = Cell cycle arrest in human ATRA-resistant NB4-LR2 cells assessed as accumulation of cells at G0/G1 phase at 1 uM incubated for 12 hrs by DAPI staining based flow cytometric analysis (reference value: 42 %); format: functional
[12] = Cell cycle arrest in human ATRA-resistant NB4-LR2 cells assessed as accumulation of cells at S phase at 1 uM incubated for 12 hrs by DAPI staining based flow cytometric analysis (reference value: 12 %); format: functional
[13] = Cell cycle arrest in human ATRA-resistant NB4-LR2 cells assessed as accumulation of cells at G2/M phase at 1 uM incubated for 12 hrs by DAPI staining based flow cytometric analysis (reference value: 28 %); format: functional
[14] = Cell cycle arrest in human ATRA-resistant NB4-LR2 cells assessed as accumulation of cells at sub-G1 phase at 1 uM incubated for 12 hrs by DAPI staining based flow cytometric analysis (reference value: 18 %); format: functional
NB-4 [15] = assay: Antiproliferative activity against human NB4 cells assessed as inhibition of cell viability at 0.125 uM incubated for 3 days by CCK8 assay relative to control; format: functional; conditions: NB-4, 72 h, time 3 day
[16] = target: T1, Retinoic acid receptor alpha (Homo sapiens); assay: Agonist activity at full length RARalpha LBD (unknown origin) transfected in HEK293T cells co-transfected with pG5luc reporter and Renilla-luc at 1 uM incubated for 12 hrs by luciferase reporter gene assay; format: cell-based; conditions: filed as agonist
[17] = target: T2, Retinoic acid receptor gamma (Homo sapiens) (UniProt P13631); assay: Agonist activity at full length RARgamma LBD (unknown origin) transfected in HEK293T cells co-transfected with pG5luc reporter and Renilla-luc at 1 uM incubated for 12 hrs by luciferase reporter gene assay; format: cell-based; conditions: filed as agonist
T2 sequence (whole entry): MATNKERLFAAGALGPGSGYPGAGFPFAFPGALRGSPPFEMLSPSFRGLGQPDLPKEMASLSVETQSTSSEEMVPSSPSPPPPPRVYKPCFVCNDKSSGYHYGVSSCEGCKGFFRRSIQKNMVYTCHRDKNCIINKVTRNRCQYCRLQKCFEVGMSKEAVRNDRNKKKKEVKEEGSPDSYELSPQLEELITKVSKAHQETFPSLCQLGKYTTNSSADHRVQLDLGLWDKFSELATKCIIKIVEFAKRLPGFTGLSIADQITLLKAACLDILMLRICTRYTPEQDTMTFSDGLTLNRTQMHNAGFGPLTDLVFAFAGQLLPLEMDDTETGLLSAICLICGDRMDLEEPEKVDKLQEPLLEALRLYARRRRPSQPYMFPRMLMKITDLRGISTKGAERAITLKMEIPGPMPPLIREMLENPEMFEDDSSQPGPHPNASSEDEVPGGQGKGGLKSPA

[18] = target: T3, Retinoic acid receptor beta (Homo sapiens) (UniProt P10826); assay: Agonist activity at full length RARbeta LBD (unknown origin) transfected in HEK293T cells co-transfected with pG5luc reporter and Renilla-luc at 1 uM incubated for 12 hrs by luciferase reporter gene assay; format: cell-based; conditions: filed as agonist
T3 sequence (whole entry): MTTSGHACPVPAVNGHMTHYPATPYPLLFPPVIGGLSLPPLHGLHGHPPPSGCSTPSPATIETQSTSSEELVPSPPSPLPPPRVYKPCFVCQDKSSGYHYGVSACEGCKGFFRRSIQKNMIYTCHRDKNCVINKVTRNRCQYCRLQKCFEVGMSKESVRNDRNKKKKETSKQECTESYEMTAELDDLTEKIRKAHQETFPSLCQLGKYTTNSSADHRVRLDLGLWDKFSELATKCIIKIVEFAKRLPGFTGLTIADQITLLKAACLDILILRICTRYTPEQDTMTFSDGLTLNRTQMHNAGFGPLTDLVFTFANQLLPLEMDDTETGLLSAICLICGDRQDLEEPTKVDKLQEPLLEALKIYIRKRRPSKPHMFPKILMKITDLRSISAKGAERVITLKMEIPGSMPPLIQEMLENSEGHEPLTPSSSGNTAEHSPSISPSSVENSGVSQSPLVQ

ATRA-resistant NB4-LR2 = assay: Antiproliferative activity against human ATRA-resistant NB4-LR2 cells assessed as effect on cell viability up to 2 uM incubated for 3 days by CCK8 assay; format: functional, cell-based; conditions: time 3.0 day
HEK293T = assay: Agonist activity at full length RARalpha LBD R276E mutant (unknown origin) transfected in HEK293T cells co-transfected with pG5luc reporter and Renilla-luc at 1 uM incubated for 12 hrs by luciferase reporter gene assay; format: cell-based; conditions: Homo sapiens, filed as agonist
[19] = target: T4, Retinoic acid receptor gamma (Homo sapiens, UniProt P13631); assay: Agonist activity at Gal4-fused full length human RARgamma LBD transfected in HEK293T cells co-transfected with pG5luc reporter and Renilla-luc assessed as transactivation incubated for 12 hrs by dual luciferase reporter gene assay; format: cell-based; conditions: hek293t
T4 sequence (P13631 whole entry): T2 sequence (whole entry)

Structure (SMILES): Cc1cc2c(cc1C(=O)/C(I)=C/c1ccc(C(=O)O)cc1)C(C)(C)CCC2(C)C
Activity (NB-4 [1]): 78%
Activity [2]: Active; Highly Raralpha Selective Agonistic Activity Observed
Activity (NB-4 [3]): 0.58%
Activity (NB-4 [4]): 4.24%
Activity [5]: 1.1%
Activity [6]: 6.66%
Activity (NB-4 [7]): 63%
Activity (NB-4 [8]): 11%
Activity (NB-4 [9]): 24%
Activity (NB-4 [10]): 2%
Activity [11]: 41%
Activity [12]: 9%
Activity [13]: 30%
Activity [14]: 20%
inhibition at 0.125 µM (NB-4 [15]): ~40%

Activity [16]: Active
Structure (SMILES): Cc1cc2c(cc1C(=O)/C=C/c1ccc(C(=O)O)cc1)C(C)(C)CCC2(C)C
Activity [17]: Active; Poor Subtype Selectivity Observed
Activity [18]: Active; Poor Subtype Selectivity Observed

EC50 [19]: Not_determined(Unstable)
Structure (SMILES): CC1(C)CCC(C)(C)c2cc(C(=O)Nc3ccc(C(=O)O)cc3)ccc21
Activity (ATRA-resistant NB4-LR2): inactive
Activity (HEK293T): Active; Partial Impairment Observed
inhibition at 0.125 µM (NB-4 [15]): ~40%
